Source: the CheMixHub viscosity set
Values joined by “and” are separate entries in the source; they are usually repeats but may differ in a detail not shown here. Identical values can stand only once.

Experiment: xn = mol fraction of the nth substance listed

CC(C)(C)O + O
Details | viscosity
298.15 K, 100 kPa, x1 = 0.1 | 3.149 mPa·s
298.15 K, 100 kPa, x1 = 0.25 | 4.729 mPa·s
298.15 K, 100 kPa, x1 = 0.3 | 4.782 mPa·s
298.15 K, 100 kPa, x1 = 0.4 | 4.889 mPa·s
298.15 K, 100 kPa, x1 = 0.5 | 4.646 mPa·s
298.15 K, 100 kPa, x1 = 0.75 | 4.225 mPa·s
298.15 K, 101 kPa, x1 = 0.026 | 1.506 mPa·s
298.15 K, 101 kPa, x1 = 0.057 | 2.309 mPa·s
298.15 K, 101 kPa, x1 = 0.094 | 3.123 mPa·s
298.15 K, 101 kPa, x1 = 0.14 | 3.797 mPa·s
298.15 K, 101 kPa, x1 = 0.2 | 4.311 mPa·s
298.15 K, 101 kPa, x1 = 0.27 | 4.715 mPa·s
298.15 K, 101 kPa, x1 = 0.36 | 4.835 mPa·s
298.15 K, 101 kPa, x1 = 0.49 | 4.73 mPa·s
298.15 K, 101 kPa, x1 = 0.69 | 4.355 mPa·s
298.15 K, 101.33 kPa, x1 = 0.02 | 1.315 mPa·s and 1.33 mPa·s and 1.27 mPa·s
298.15 K, 101.33 kPa, x1 = 0.0206 | 1.337 mPa·s
298.15 K, 101.33 kPa, x1 = 0.026 | 1.52 mPa·s and 1.45 mPa·s
298.15 K, 101.33 kPa, x1 = 0.0397 | 1.85 mPa·s
298.15 K, 101.33 kPa, x1 = 0.04 | 1.89 mPa·s and 1.79 mPa·s
298.15 K, 101.33 kPa, x1 = 0.0447 | 2.015 mPa·s
298.15 K, 101.33 kPa, x1 = 0.057 | 2.35 mPa·s and 2.19 mPa·s
298.15 K, 101.33 kPa, x1 = 0.06 | 2.379 mPa·s and 2.42 mPa·s and 2.26 mPa·s
298.15 K, 101.33 kPa, x1 = 0.0745 | 2.78 mPa·s
298.15 K, 101.33 kPa, x1 = 0.0798 | 2.818 mPa·s
298.15 K, 101.33 kPa, x1 = 0.094 | 3.16 mPa·s and 2.97 mPa·s
298.15 K, 101.33 kPa, x1 = 0.1 | 3.26 mPa·s and 3.05 mPa·s
298.15 K, 101.33 kPa, x1 = 0.101 | 3.238 mPa·s
298.15 K, 101.33 kPa, x1 = 0.1121 | 3.55 mPa·s
298.15 K, 101.33 kPa, x1 = 0.1181 | 3.532 mPa·s
298.15 K, 101.33 kPa, x1 = 0.139 | 3.88 mPa·s and 3.66 mPa·s
298.15 K, 101.33 kPa, x1 = 0.1395 | 3.842 mPa·s
298.15 K, 101.33 kPa, x1 = 0.1574 | 4.288 mPa·s
298.15 K, 101.33 kPa, x1 = 0.1609 | 4.176 mPa·s
298.15 K, 101.33 kPa, x1 = 0.196 | 4.47 mPa·s and 4.41 mPa·s
298.15 K, 101.33 kPa, x1 = 0.198 | 4.441 mPa·s
298.15 K, 101.33 kPa, x1 = 0.2199 | 4.888 mPa·s
298.15 K, 101.33 kPa, x1 = 0.267 | 4.89 mPa·s and 4.86 mPa·s
298.15 K, 101.33 kPa, x1 = 0.3027 | 4.984 mPa·s
298.15 K, 101.33 kPa, x1 = 0.3035 | 5.292 mPa·s
298.15 K, 101.33 kPa, x1 = 0.362 | 4.99 mPa·s and 4.96 mPa·s
298.15 K, 101.33 kPa, x1 = 0.4285 | 5.484 mPa·s
298.15 K, 101.33 kPa, x1 = 0.4313 | 5.285 mPa·s
298.15 K, 101.33 kPa, x1 = 0.4315 | 5.316 mPa·s
298.15 K, 101.33 kPa, x1 = 0.493 | 4.86 mPa·s and 4.86 mPa·s
298.15 K, 101.33 kPa, x1 = 0.4939 | 5.199 mPa·s
298.15 K, 101.33 kPa, x1 = 0.5001 | 4.811 mPa·s
298.15 K, 101.33 kPa, x1 = 0.5965 | 4.912 mPa·s
298.15 K, 101.33 kPa, x1 = 0.686 | 4.48 mPa·s and 4.5 mPa·s
298.15 K, 101.33 kPa, x1 = 0.6961 | 4.646 mPa·s
298.15 K, 101.33 kPa, x1 = 0.6976 | 4.409 mPa·s
298.15 K, 101.33 kPa, x1 = 0.7888 | 4.392 mPa·s
298.15 K, 101.33 kPa, x1 = 0.7907 | 4.397 mPa·s
298.15 K, 101.33 kPa, x1 = 0.7931 | 4.254 mPa·s
298.15 K, 101.33 kPa, x1 = 0.822 | 4.27 mPa·s and 4.28 mPa·s
298.15 K, 101.33 kPa, x1 = 0.8932 | 4.308 mPa·s
298.15 K, 101.33 kPa, x1 = 0.9088 | 4.222 mPa·s
298.15 K, 101.33 kPa, x1 = 0.9422 | 4.288 mPa·s
298.15 K, 101.33 kPa, x1 = 0.96 | 4.37 mPa·s and 4.41 mPa·s
298.15 K, 101.33 kPa, x1 = 0.9734 | 4.408 mPa·s
303 K, 101 kPa, x2 = 0.3 | 3.527 mPa·s
303 K, 101 kPa, x2 = 0.5 | 3.881 mPa·s
303 K, 101 kPa, x2 = 0.65 | 3.975 mPa·s
303 K, 101 kPa, x2 = 0.91 | 2.475 mPa·s
303 K, 101 kPa, x2 = 0.95 | 1.772 mPa·s
303.2 K, 101.33 kPa, x2 = 0.05 | 3.236 mPa·s
303.2 K, 101.33 kPa, x2 = 0.1 | 3.214 mPa·s
303.2 K, 101.33 kPa, x2 = 0.15 | 3.247 mPa·s
303.2 K, 101.33 kPa, x2 = 0.2 | 3.309 mPa·s
303.2 K, 101.33 kPa, x2 = 0.3 | 3.455 mPa·s
303.2 K, 101.33 kPa, x2 = 0.4 | 3.599 mPa·s
303.2 K, 101.33 kPa, x2 = 0.5 | 3.743 mPa·s
303.2 K, 101.33 kPa, x2 = 0.6 | 3.877 mPa·s
303.2 K, 101.33 kPa, x2 = 0.7 | 3.836 mPa·s
303.2 K, 101.33 kPa, x2 = 0.8 | 3.541 mPa·s
303.2 K, 101.33 kPa, x2 = 0.85 | 3.182 mPa·s
303.2 K, 101.33 kPa, x2 = 0.9 | 2.604 mPa·s
303.2 K, 101.33 kPa, x2 = 0.95 | 1.738 mPa·s
304 K, 101 kPa, x2 = 0.75 | 3.646 mPa·s
305 K, 101 kPa, x2 = 0.1 | 3.026 mPa·s
308.15 K, 101 kPa, x1 = 0.05 | 1.541 mPa·s
308.15 K, 101 kPa, x1 = 0.1 | 2.188 mPa·s
308.15 K, 101 kPa, x1 = 0.2 | 2.951 mPa·s
308.15 K, 101 kPa, x1 = 0.3 | 3.186 mPa·s
308.15 K, 101 kPa, x1 = 0.4 | 3.219 mPa·s
308.15 K, 101 kPa, x1 = 0.5 | 3.116 mPa·s
308.15 K, 101 kPa, x1 = 0.6 | 2.973 mPa·s
308.15 K, 101 kPa, x1 = 0.7 | 2.837 mPa·s
308.15 K, 101 kPa, x1 = 0.8 | 2.701 mPa·s
308.15 K, 101 kPa, x1 = 0.9 | 2.635 mPa·s
308.15 K, 101 kPa, x1 = 0.95 | 2.606 mPa·s
313 K, 101 kPa, x2 = 0.1 | 2.146 mPa·s
313 K, 101 kPa, x2 = 0.3 | 2.33 mPa·s
313 K, 101 kPa, x2 = 0.5 | 2.586 mPa·s
313 K, 101 kPa, x2 = 0.65 | 2.674 mPa·s
313 K, 101 kPa, x2 = 0.75 | 2.587 mPa·s
313 K, 101 kPa, x2 = 0.91 | 1.747 mPa·s
313 K, 101 kPa, x2 = 0.95 | 1.287 mPa·s
313.15 K, 101 kPa, x1 = 0.05 | 1.311 mPa·s
313.15 K, 101 kPa, x1 = 0.07 | 1.54 mPa·s
313.15 K, 101 kPa, x1 = 0.1 | 1.84 mPa·s
313.15 K, 101 kPa, x1 = 0.2 | 2.453 mPa·s
313.15 K, 101 kPa, x1 = 0.3 | 2.615 mPa·s
313.15 K, 101 kPa, x1 = 0.4 | 2.618 mPa·s
313.15 K, 101 kPa, x1 = 0.5 | 2.534 mPa·s
323 K, 101 kPa, x2 = 0.1 | 1.471 mPa·s
323 K, 101 kPa, x2 = 0.3 | 1.623 mPa·s
323 K, 101 kPa, x2 = 0.5 | 1.809 mPa·s
323 K, 101 kPa, x2 = 0.65 | 1.889 mPa·s
323 K, 101 kPa, x2 = 0.75 | 1.85 mPa·s
323 K, 101 kPa, x2 = 0.91 | 1.306 mPa·s
323 K, 101 kPa, x2 = 0.95 | 0.9856 mPa·s
323.15 K, 100 kPa, x1 = 0.1 | 1.273 mPa·s
323.15 K, 100 kPa, x1 = 0.3 | 1.834 mPa·s
323.15 K, 100 kPa, x1 = 0.4 | 1.833 mPa·s
323.15 K, 100 kPa, x1 = 0.5 | 1.696 mPa·s
323.15 K, 100 kPa, x1 = 0.75 | 1.429 mPa·s
